Assay: Tested for the ability to block NADH dehydrogenase in a preparation of submitochondrial particles obtained from blow fly flight muscle
Type: tissue-based, Calliphoridae, Muscle tissue

SMILES | -Log IC50
C=C(C)[C@H]1Cc2c(ccc(Cn3c(C)nc4ccccc43)c2OC)O1 | 6.82
C=C(C)[C@H]1Cc2c(ccc3c2O[C@@H]2COc4cc(OC)c(OC)cc4[C@@H]2C3=O)O1 [ROTENONE] | 8.7
C=C(C)[C@H]1Cc2cc(C(=O)n3c(C)nc4ccccc43)ccc2O1 | 7.82
C=C(C)[C@H]1Cc2cc(Cn3c(C)nc4ccccc43)ccc2O1 | 7.3
COc1ccc(CC2NCCc3cc4c(cc32)C[C@H](C(C)CSc2ccccc2)O4)cc1OC (some centres not stated) | 7.9
C=C(C)[C@H]1Cc2cc3c(cc2O1)CCNC3Cc1ccc(OC)c(OC)c1 (some centres not stated) | 6.76
C=C(C)[C@H]1Cc2c(ccc(C(=O)n3c(C)nc4ccccc43)c2OC)O1 | 6.6

From ChEMBL document CHEMBL1127703, “Structural requirements for respiratory inhibition by rotenoids; is an intact B/C ring system essential?” (Bioorg Med Chem Lett, 1994)
